How the values were obtained:
[1] = Trough plasma concentrations of ATI-2042 and metabolites (Example 1); format: in vivo, human
Description: Patients were enrolled within 8 weeks of screening. During the study, they were reviewed on days 1, 2, and 8 of each study period. ATI-2042 was increased on day 1 of each 2-week study period, following routine bloods for haematology, biochemistry, and coagulation screens. Plasma samples for pharmacokinetic analysis of ATI-2042 and its metabolites were taken at steady state at the end of each study period just prior to the first escalated dose of the subsequent period and within 15 min prior to the pre-dose ECG for that dose.
Trough concentrations of ATI-2042 and its metabolites (ATI-2000, ATI-2100, and ATI-2142), measured at pre-dose on day 1 of each of the four treatment periods and on days 1 and 8 of the washout period, were summarized by time point. Spearman's rank correlation was used to examine the relationship between trough concentrations of ATI-2042 and AFB.

[2] = test system: sodium, potassium, and calcium ion channels; test: Electrophysiological activity in animals: ion channel inhibition

(S)-sec-butyl 2-(3-(4-(2-(diethylamino)ethoxy)-3,5-diiodobenzoyl)benzofuran-2-yl)acetate [ATI-2042]
mean trough level of ATI-2042 ([1]; 200 mg bid, steady state): 2.4 ± 0.9 ng/mL
mean trough level of ATI-2042 ([1]; 400 mg bid): 5.2 ± 1.7 ng/mL
mean trough level of ATI-2042 ([1]; 600 mg bid): 13.1 ± 5.6 ng/mL
mean trough level of ATI-2042 ([1]; 800 mg bid): 19.8 ± 17.9 ng/mL
trough level of ATI-2042 ([1]; washout): 0.3+0.4 ng/mL
inhibition of sodium, potassium, and calcium ion channels [2]: inhibition comparable with amiodarone

— patent US9549912B2, “Methods for treating atrial fibrillation” (Armetheon, Inc., priority 2009, dated 2017)
